Key:
MRL/lpr mice = assay: MRL/lpr mouse model of lupus and LN: alopecia and skin lesions; format: in vivo; conditions: for alopecia (nose area): Mrl/lpr mice
From the text: FIG. 13B illustrates percentage of skin effected by alopecia on the nose area of untreated mice (Ctrl), mice treated with a vehicle (Veh), and mice treated with LA1 (LA1). […] Bars show mean +/−SEM (n=5).
FIG. 13C illustrates lesion size (mm) in untreated mice (Ctrl), mice treated with a vehicle (Veh), and mice treated with LA1 (LA1). […] Bars show mean +/−SEM (n=5).
To evaluate the efficacy of LA1 as a treatment for LN, MRL/ipr mouse models were used. MRL/lpr mice develop high circulating levels of IFN-I, systemic inflammation and multi-organ pathology, including skin, vascular, and kidney damage, and LN. Thus, this genetic mouse model mimics several features of human lupus and LN.

[1] = tested on: BMDMs from C57BL/6 wild type mice (WT); assay: Biomarker secretion from IMQ-treated bone marrow derived macrophages of wild type mice; format: cell-based; conditions: WT cells, IMQ (20 ug/mL) and LA1 (20 uM) co-treatment, 4 hours
Method: (§1) FIG. 7A illustrates levels of biomarker IL-6 secretion in bone marrow derived macrophages (BMDMs) from C57BL/6 wild type (WT) mice, mice with global deletion of CD11b (KO), or C57BL/6 mice expressing CD11b with a point mutation (KI), the macrophages treated for 4 hours with vehicle DMSO (UT), LA1 (20 uM), IMQ (20 ug/mL), or IMQ and LA1 co-treatment. Bars show mean with SD (N=3) (*P<0.05, **P<0.01, ***P<0.001, ****P<0.0001).
as §1, with “7B” for “7A”, “IL-1b” for “IL-6”
as §1, with “7C” for “7A”, “suPAR” for “IL-6”
as §1, with “7D” for “7A”, “IFNb” for “IL-6”
(§2) Bone marrow derived macrophages (BMDMs) from C57BL/6 wild type mice (WT), mice with global deletion of CD11b (KO), and C57BL/6 mice expressing CD11b with a point mutation (KI), as described previously (Martinez et al., 2020) were used to evaluate the effect of pharmacologic activation of CD11b by LA1 or genetic activation of CD11b on TLR-pathway dependent biomarkers. BMDMs from WT, KO, and KI mice were left untreated, treated with LA1, treated with IMQ, or co-treated with LA1 and IMQ and levels of biomarkers IL-1b, suPAR, IL-6 and IFN-b were measured 4 hours after treatment.

[2] = tested on: IMQ-induced mouse model of lupus; assay: IMQ-induced mouse model of lupus, LA1 started 0, 2 or 4 weeks after disease induction; format: in vivo, wild type C57BL/6 mice
Method: FIG. 12A illustrates levels of anti-dsDNA antibodies measured weekly in mice co-treated with IMQ and LA1 (30 mg/kg, BID) for 8 weeks. Each dot represents mean +/−SEM (n=4).
FIG. 12B illustrates levels of anti-dsDNA antibodies measured weekly in mice treated with IMQ for 8 weeks starting at week 0 and additionally treated with LA1 (30 mg/kg, BID) for 6 weeks, starting at week 2. Each dot represents mean +/−SEM (n=4).
FIG. 12C illustrates levels of anti-dsDNA antibodies measured weekly in mice treated with IMQ for 8 weeks starting at week 0 and additionally treated with LA1 (30 mg/kg, BID) for 4 weeks, starting at week 4. Each dot represents mean +/−SEM (n=4).
FIG. 12D illustrates levels of biomarker suPAR measured weekly in mice co-treated with IMQ and LA1 (30 mg/kg, BID) for 8 weeks. Each dot represents mean +/−SEM (n=4).
FIG. 12E illustrates levels of biomarker suPAR measured weekly in mice treated with IMQ for 8 weeks starting at week 0 and additionally treated with LA1 (30 mg/kg, BID) for 6 weeks, starting at week 2. Each dot represents mean +/−SEM (n=4).
FIG. 12F illustrates levels of biomarker suPAR measured weekly in mice treated with IMQ for 8 weeks starting at week 0 and additionally treated with LA1 (30 mg/kg, BID) for 4 weeks, starting at week 4. Each dot represents mean +/−SEM (n=4).
FIG. 12G illustrates an experimental timeline for the measurement of anti-dsDNA antibody and suPAR levels in mice treated with IMQ and LA1 for 8 weeks, the LA1 treatment initiated at various time points.
To assess therapeutic efficacy of LA1 in a TLR7-dependent SLE murine model, an IMQ-induced mouse model of lupus (Yokogawa et al., 2014) was used. To induce disease, wild type C57BL/ 6 mice (WT) were treated with IMQ cream (Aldara) over the course of 8 weeks. IMQ-induced mice were then treated with LA 1, the treatment initiated at 0, 2, and 4 weeks after disease induction, as shown in FIG. 12G. Anti-dsDNA antibody and suPAR levels were measured in the murine serum at various time points during treatment.

[3] = tested on: BMDMs from mice with global deletion of CD11b (KO); assay: Biomarker secretion from IMQ-treated bone marrow derived macrophages of CD11b KO mice; format: cell-based; conditions: CD11b KO cells, IMQ (20 ug/mL) and LA1 (20 uM) co-treatment, 4 hours
Method: as §1
as §1, with “7B” for “7A”, “IL-1b” for “IL-6”
as §1, with “7C” for “7A”, “suPAR” for “IL-6”
as §1, with “7D” for “7A”, “IFNb” for “IL-6”
as §2

[4] = LA1 30 mg/kg BID co-treated with IMQ for 8 weeks (start week 0)
[5] = LA1 30 mg/kg BID started four weeks after initial IMQ (after disease onset)
[6] = LA1 30 mg/kg BID started two weeks after initial IMQ (after disease onset)

O=C(O)c1ccc(-c2ccc(/C=C3\SC(=S)N(Cc4ccccc4)C3=O)o2)cc1 [LA1, (Z)-4-(5-((3-benzyl-4-oxo-2-thioxothiazolidin-5-ylidene)methyl)furan-2-yl)benzoic acid]
reduces clinical symptoms: skin lesions (MRL/lpr mice; Mrl/lpr mice treated with LA1, co-treatment and delayed treatment)
significantly reduced: anti-dsDNA antibody levels in serum [2, 4] | suPAR levels in serum [2, 4] | anti-dsDNA antibody levels in serum [2, 5] | suPAR levels in serum [2, 5] | anti-dsDNA antibody levels in serum [2, 6] | suPAR levels in serum [2, 6]
no effect: level of IFN-b in cell supernatant [3] | level of IL-1b in cell supernatant [3] | level of IL-6 in cell supernatant [3] | level of suPAR in cell supernatant [3]
reduction in alopecia: alopecia (nose area) (MRL/lpr mice; LA1 as co-treatment) | alopecia (nose area) (MRL/lpr mice; LA1 treatment after 2-weeks of disease onset)
significantly suppressed: level of IFN-b in cell supernatant [1] | level of IL-1b in cell supernatant [1] | level of IL-6 in cell supernatant [1] | level of suPAR in cell supernatant [1]

Source: patent US20260137662A1, “CD11B AGONISTS FOR TREATMENT OF AUTOIMMUNE DISEASE” (Rush University Medical Center, priority 2022, published 2026)
